Experimental data taken from publication PMC10146604, “The Balance between Hydrophobicity/Aromaticity and Positively Charged Residues May Influence the Cell Penetration Ability” (Pharmaceutics, 2023).
Peptide text beside a SMILES is read from it. * marks the point of attachment. 5FAM = O=C1OC2(c3ccc(O)cc3Oc3cc(O)ccc32)c2ccc(C(=O)*)cc21; Dabcyl = CN(C)c1ccc(N=Nc2ccc(C(=O)*)cc2)cc1

Tested on: EBC-1 human lung squamous carcinoma cells
Test: Cellular uptake by flow cytometry
Type: cell-based
Conditions: 90 min, 37 °C, trypsinization; for cellular uptake (in words) / cellular uptake relative to the control octaarginine (Cf-Arg8): 5 µM peptide, serum-free medium; for cellular uptake (in words): compared with Cf-Arg8; for cellular uptake relative to the control octaarginine (Cf-Arg8): flow cytometry fluorescence intensity normalized to Cf-Arg8
Procedure: For the examination of the internalization of the peptides, 10^5 cultured EBC-1 cells per well were plated on 24-well plates. The cells were incubated for 24 h at 37 °C then they were treated with peptides at different concentrations for 90 min in a serum-free medium. In the negative control the cells were treated with a serum-free medium. After the incubation, the peptide solutions were removed and 100 µL trypsin (0.25%) was added for 5–10 min to remove membrane bound peptides and detach the adherent cells from the plates. The activity of trypsin was terminated by the addition of 900 µL HPMI buffer (glucose, NaHCO3, NaCl, HEPES, KCl, MgCl2, CaCl2, Na2HPO4∙2H2O) containing 10% fetal bovine serum, and the cells were transferred from the plates to FACS-tubes for measurement. The cells were centrifuged at 216× g at 4 °C for 5 min and the supernatant was removed. The cells were resuspended in 250 µL HPMI, and the fluorescence intensity of the cells was quantified using flow cytometry (BD LSR II, BD Bioscience, San Jose, CA, USA). The data were analyzed with FACSDiva 5.0 software (BD Bioscience, San Jose, CA, USA).
The cellular uptake of the peptides was determined using flow cytometry on EBC-1 human lung squamous carcinoma cells. The peptides were added to the cells at a concentration of 5 µM for 90 min at 37 °C. Selected constructs were used to study the concentration dependence at 0.125, 1.25 and 2.5 µM with 90 min treatment times. When evaluating the measurements data, the fluorescence of cells treated with peptides was corrected with the autofluorescence of cells without peptide treatment. The toxicity of the peptide conjugates was determined by comparing the live and dead cells ratio during the flow cytometry analysis.

| SMILES | cellular uptake (in words) (EBC-1 cells, flow cytometry) | cellular uptake relative to the control octaarginine (Cf-Arg8) (EBC-1 cells) | also measured |
| --- | --- | --- | --- |
| CN(C)c1ccc(N=Nc2ccc(C(=O)NCCCC[C@H](NC(=O)[C@H](CCCNC(=N)N)NC(=O)[C@H](CCCNC(=N)N)NC(=O)[C@H](CCCNC(=N)N)NC(=O)[C@H](CCCNC(=N)N)NC(=O)[C@H](CCCNC(=N)N)NC(=O)[C@H](CCCNC(=N)N)NC(=O)c3ccc4c(c3)C(=O)OC43c4ccc(O)cc4Oc4cc(O)ccc43)C(N)=O)cc2)cc1 [Cf-(Arg)6-Lys(Dabcyl)] | surprisingly poor cellular uptake | – | cellular uptake compared with octaarginine at low concentrations (in words) (EBC-1 cells, 0.125, 1.25 and 2.5 µM peptide, flow cytometry): significantly decreased uptake |
| CN(C)c1ccc(N=Nc2ccc(C(=O)N[C@@H](CCCNC(=N)N)C(=O)N[C@@H](CCCNC(=N)N)C(=O)N[C@@H](CCCNC(=N)N)C(=O)N[C@@H](CCCNC(=N)N)C(=O)N[C@@H](CCCCNC(=O)c3ccc4c(c3)C(=O)OC43c4ccc(O)cc4Oc4cc(O)ccc43)C(N)=O)cc2)cc1 [Dabcyl-(Arg)4-Lys(Cf)] (Dabcyl-RRRRK(5FAM)-NH2) | lower cellular uptake than octaarginine | – | – |
| CN(C)c1ccc(N=Nc2ccc(C(=O)N[C@@H](CCCNC(=N)N)C(=O)N[C@@H](CCCNC(=N)N)C(=O)N[C@@H](CCCNC(=N)N)C(=O)N[C@@H](CCCNC(=N)N)C(=O)N[C@@H](CCCNC(=N)N)C(=O)N[C@@H](CCCNC(=N)N)C(=O)N[C@@H](CCCCNC(=O)c3ccc4c(c3)C(=O)OC43c4ccc(O)cc4Oc4cc(O)ccc43)C(N)=O)cc2)cc1 [Dabcyl-(Arg)6-Lys(Cf)] | – | 6.5 times | – |
| CN(C)c1ccc(N=Nc2ccc(C(=O)N[C@@H](CCCNC(=N)N)C(=O)N[C@@H](CCCNC(=N)N)C(=O)N[C@@H](CCCNC(=N)N)C(=O)N[C@@H](CCCNC(=N)N)C(=O)N[C@@H](CCCNC(=N)N)C(=O)N[C@@H](CCCNC(=N)N)C(=O)N[C@@H](CCCNC(=N)N)C(=O)N[C@@H](CCCCNC(=O)c3ccc4c(c3)C(=O)OC43c4ccc(O)cc4Oc4cc(O)ccc43)C(N)=O)cc2)cc1 [Dabcyl-(Arg)7-Lys(Cf)] | – | 6 times | – |
| CN(C)c1ccc(N=Nc2ccc(C(=O)NCc3ccc(C(=O)N[C@@H](CCCNC(=N)N)C(=O)N[C@@H](CCCNC(=N)N)C(=O)N[C@@H](CCCNC(=N)N)C(=O)N[C@@H](CCCNC(=N)N)C(=O)N[C@@H](CCCNC(=N)N)C(=O)N[C@@H](CCCNC(=N)N)C(=O)N[C@@H](CCCNC(=N)N)C(=O)N[C@@H](CCCNC(=N)N)C(=O)N[C@@H](CCCCNC(=O)c4ccc5c(c4)C(=O)OC54c5ccc(O)cc5Oc5cc(O)ccc54)C(N)=O)cc3)cc2)cc1 [Dabcyl-AMBA-(Arg)8-Lys(Cf)] | – | ~ 8 times | cellular uptake relative to Cf-Arg8 (EBC-1 cells, 1.25 µM peptide, flow cytometry): ~ 6 times; cellular uptake relative to octaarginine (EBC-1 cells, 2.5 µM peptide, flow cytometry): 30 times |
